Where “and” joins values, the source holds several entries; their conditions need not be identical. Equal values may be shown once. Blank lines part the entries; values can stand above or below the compound they belong to. Where no end group is shown, it is not given here. [ ]: non-standard residue; d: D form.
Biological target: Ghrelin/GHRP/GHS Receptor (Rattus norvegicus, UniProt O08725)
Assay: GH release from cell culture of pituitary cells
Assay type: cell-based
Parameters: After dispersion, the cells were collected by centrifugation, wash with DMEM and placed into culture well; endogenous in cells; host or cells: dispersed primary rat pituitary cells, 4 days in culture
Conditions: for Unstimulated Basal GH release: Table 8
Procedure: In vitro GH Release-Female rats of the CD-1 strain were housed in a constant temperature room at 24° C. with 14 h light and 10 h darkness. The rats were fed Purina Rat chow and water at libitum. All studies were started between 0800-1000 hours. Pituitaries of mature female Sprague Dawley rats were rapidly removed after decapitation, neurointermediate lobe discarded and then placed in a pH 7.4 buffer. The pituitaries were cut into ˜3-mm pieces and then transferred to a flask containing HEPS buffer with trypsin and incubated at 37° C. Cells were triturated several times during this period. After dispersion, the cells were collected by centrifugation, wash with DMEM and placed into culture well. Cell cultures were maintained for 4 days at 37° with 8% CO2 added to the incubator atmosphere. After 4 days in culture, cells were washed with lactated Ringer's solution adjusted to pH 7.2-7.4 and then vehicle, peptide alone or peptide plus stimulator was added to media. Incubation time was 60-120 minutes after which media was removed from each well for GH determination. The GH RIA reagents were distributed by the NIH. Control data was collected from cell cultures treated with only the corresponding vehicle in the absence of peptide or stimulator. Control stimulated data was collected from cell cultures treated with stimulator alone in the absence of any peptide.

[1] = Table 11, compound 10 μg/ml + stimulator 1 ng/ml
[2] = Table 11, compound 30 μg/ml + stimulator 1 ng/ml
[3] = Table 11, compound alone 10 μg/ml
[4] = Table 11, compound alone 30 μg/ml
[5] = Table 10, compound 10 μg/ml + stimulator 1 ng/ml
[6] = Table 10, compound 30 μg/ml + stimulator 1 ng/ml
[7] = Table 10, compound alone 10 μg/ml
[8] = Table 10, compound alone 30 μg/ml
[9] = Table 10, compound 1 μg/ml + stimulator 1 ng/ml
[10] = Table 10, compound 3 μg/ml + stimulator 1 ng/ml
[11] = Table 10, compound alone 1 μg/ml
[12] = Table 10, compound alone 3 μg/ml

Sequence of Ghrelin/GHRP/GHS Receptor (O08725 whole entry): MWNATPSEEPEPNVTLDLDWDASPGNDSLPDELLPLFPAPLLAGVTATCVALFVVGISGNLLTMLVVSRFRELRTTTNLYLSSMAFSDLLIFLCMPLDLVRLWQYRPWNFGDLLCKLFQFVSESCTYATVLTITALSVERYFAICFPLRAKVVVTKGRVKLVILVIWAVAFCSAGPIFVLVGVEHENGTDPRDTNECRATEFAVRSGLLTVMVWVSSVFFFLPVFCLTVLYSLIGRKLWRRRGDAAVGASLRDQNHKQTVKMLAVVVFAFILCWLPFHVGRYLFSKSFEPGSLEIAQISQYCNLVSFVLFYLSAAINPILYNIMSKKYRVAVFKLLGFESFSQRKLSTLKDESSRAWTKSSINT

Stimulated GH release (P + S) (Table 11, compound 1 μg/ml + stimulator 1 ng/ml): 680 ± 13 ng/mL
Stimulated GH release (P + S) (Table 11, compound 3 μg/ml + stimulator 1 ng/ml): 489 ± 41 ng/mL
Stimulated GH release (P + S) [1]: 245 ± 16 ng/mL
Compound: p-phenyl(piperidinamide-DTrpLysSer(BZL)-acetylamide

Stimulated GH release (P + S) [1]: 526 ± 27 ng/mL
Stimulated GH release (P + S) [2]: 428 ± 22 ng/mL
Unstimulated GH release [3]: 557 ± 19 ng/mL
Unstimulated GH release [4]: 378 ± 18 ng/mL
Compound: γAbuDTrp-p-[m-methoxyphenyl] piperidinamide

Unstimulated Basal GH release (peptide 3 μg/ml): 1146 ± 34 ng/mL
Unstimulated Basal GH release (peptide 10 μg/ml): 1086 ± 32 ng/mL
Unstimulated Basal GH release (peptide 30 μg/ml): 871 ± 89 ng/mL
Compound: [dF]W[dF]FM-NH2 [13-DPhe-Trp-DPhe-Phe-Met-NH2]

Stimulated GH release (P + S) [5]: 878 ± 30 ng/mL
Stimulated GH release (P + S) [6]: 510 ± 15 ng/mL
Unstimulated GH release [7]: 777 ± 34 ng/mL
Unstimulated GH release [8]: 499 ± 18 ng/mL
Compound: CC(C)(N)C(=O)N[C@H](COCc1ccccc1)C(=O)N1CCN(c2ccccc2)CC1 [αAibDSer(BZL)-N′-phenyl-N-piperazinamide]

Unstimulated Basal GH release (peptide 3 μg/ml): 1480 ± 19 ng/mL
Unstimulated Basal GH release (peptide 10 μg/ml): 802 ± 26 ng/mL
Unstimulated Basal GH release (peptide 30 μg/ml): 601 ± 16 ng/mL
Unstimulated Basal GH release (peptide 100 μg/ml): 509 ± 49 ng/mL
Compound: Arg-DTrp-Leu-Tyr-Trp-Pro(cyclic Arg-Pro) (WLYWP; HELM PEPTIDE1{R.[dW].L.Y.W.P}$PEPTIDE1,PEPTIDE1,1:R1-6:R2$$$V2.0; SMILES CC(C)C[C@@H]1NC(=O)[C@@H](Cc2c[nH]c3ccccc23)NC(=O)[C@H](CCCNC(=N)N)NC(=O)[C@@H]2CCCN2C(=O)[C@H](Cc2c[nH]c3ccccc23)NC(=O)[C@H](Cc2ccc(O)cc2)NC1=O)

Stimulated GH release (P + S) [1]: 644 ± 33 ng/mL
Stimulated GH release (P + S) [2]: 529 ± 20 ng/mL
Unstimulated GH release [3]: 794 ± 34 ng/mL
Unstimulated GH release [4]: 504 ± 20 ng/mL
Compound: 1,3-diaminobutyricamide-DβNal-4-phenylpiperidinamide

Unstimulated Basal GH release (peptide 3 μg/ml): 1105 ± 18 ng/mL
Unstimulated Basal GH release (peptide 10 μg/ml): 891 ± 4 ng/mL
Unstimulated Basal GH release (peptide 30 μg/ml): 567 ± 24 ng/mL
Compound: DPal-Trp-DPhe-Phe-Met-NH2 [14-DPal-Trp-DPhe-Phe-Met-NH2]

Unstimulated Basal GH release (peptide 3 μg/ml): 105 ± 8 ng/mL
Unstimulated Basal GH release (peptide 10 μg/ml): 950 ± 91 ng/mL
Unstimulated Basal GH release (peptide 30 μg/ml): 782 ± 56 ng/mL
Unstimulated Basal GH release (peptide 100 μg/ml): 756 ± 1 ng/mL
Compound: Ac-[dK]Y[dW][dW]F-NH2 [9-Ac-DLys-Tyr-DTrp-DTrp-Phe-NH2]

Stimulated GH release (P + S) [1]: 670 ± 32 ng/mL
Stimulated GH release (P + S) [2]: 458 ± 15 ng/mL
Unstimulated GH release [3]: 698 ± 18 ng/mL
Unstimulated GH release [4]: 552 ± 20 ng/mL
Compound: CCOC(=O)c1cc2ccccc2cc1C(=O)Nc1cccc(OC)c1 [2-[ethylester-3-m-methoxylphenylamide] naphthalene carboxylamide]

Unstimulated Basal GH release (peptide 3 μg/ml): 170 ± 19 ng/mL
Unstimulated Basal GH release (peptide 10 μg/ml): 181 ± 31 ng/mL
Unstimulated Basal GH release (peptide 30 μg/ml): 161 ± 20 ng/mL
Unstimulated Basal GH release (peptide 100 μg/ml): 146 ± 21 ng/mL
Compound: DPhe-Ala-Phe-DPal-NH2 [6-DPhe-Ala-Phe-DPal-NH2]

Stimulated GH release (P + S) [5]: 480 ± 9 ng/mL
Stimulated GH release (P + S) [6]: 223 ± 22 ng/mL
Unstimulated GH release [7]: 373 ± 2 ng/mL
Unstimulated GH release [8]: 176 ± 11 ng/mL
Compound: 2-[acetylester]-3-(p-m-methoxyl phenyl) piperidinamide]-naphthalene carboxamide

Unstimulated Basal GH release (peptide 3 μg/ml): 1081 ± 50 ng/mL
Unstimulated Basal GH release (peptide 10 μg/ml): 997 ± 30 ng/mL
Unstimulated Basal GH release (peptide 30 μg/ml): 425 ± 25 ng/mL
Compound: DPal-Phe-DTrp-Phe-Met-NH2 [12-DPal-Phe-DTrp-Phe-Met-NH2]

Stimulated GH release (P + S) [9]: 654 ± 18 ng/mL
Stimulated GH release (P + S) [10]: 442 ± 4 ng/mL
Stimulated GH release (P + S) [5]: 537 ± 28 ng/mL and 648 ± 16 ng/mL
Stimulated GH release (P + S) [6]: 309 ± 46 ng/mL
Unstimulated GH release [11]: 338 ± 3 ng/mL
Unstimulated GH release [12]: 204 ± 10 ng/mL
Unstimulated GH release [7]: 262 ± 4 ng/mL and 136 ± 11 ng/mL
Unstimulated GH release [8]: 118 ± 8 ng/mL
Compound: COc1ccccc1N1CCN(C(=O)c2cc3ccccc3cc2C(=O)N2CCN(c3ccccc3OC)CC2)CC1 [2,3-di[N-(2-methoxylphenyl)piperazyl-naphthalenecarboxylamide]

Stimulated GH release (P + S) [1]: 441 ± 21 ng/mL
Stimulated GH release (P + S) [2]: 384 ± 16 ng/mL
Unstimulated GH release [3]: 365 ± 2 ng/mL
Unstimulated GH release [4]: 375 ± 30 ng/mL
Compound: COc1ccccc1C1CCN(C(=O)[C@@H](Cc2c[nH]c3ccccc23)NC(=O)C(C)(C)N)CC1 [αAibDTrp-p-(α-methoxylphenyl) piperidinamide]

Stimulated GH release (P + S) [5]: 719 ± 26 ng/mL
Stimulated GH release (P + S) [6]: 435 ± 0 ng/mL
Unstimulated GH release [7]: 585 ± 10 ng/mL
Unstimulated GH release [8]: 368 ± 2 ng/mL
Compound: N[C@H](COCc1ccccc1)C(=O)N1CCN(c2ccccc2)CC1 [6-D Ser(BZL)-N′-phenyl-N-piperazinamide, D Ser(BZL)-N′-phenyl-N-piperazinamide]

Unstimulated Basal GH release (peptide 3 μg/ml): 1013 ± 207 ng/mL
Unstimulated Basal GH release (peptide 10 μg/ml): 976 ± 13 ng/mL
Unstimulated Basal GH release (peptide 30 μg/ml): 928 ± 16 ng/mL
Compound: Ac-DβNal-PlcLys-ILys-DPhe-NH2 [11-Ac-DβNal-PlcLys-ILys-DPhe-NH2]

Unstimulated Basal GH release (peptide 1 μg/ml): 286 ± 75 ng/mL
Unstimulated Basal GH release (peptide 3 μg/ml): 177 ± 44 ng/mL
Unstimulated Basal GH release (peptide 10 μg/ml): 271 ± 38 ng/mL
Unstimulated Basal GH release (peptide 30 μg/ml): 376 ± 28 ng/mL
Compound: DAla-DcyclohexylAla-Ala-Ala-Phe-DPhe-Nle-NH2

Stimulated GH release (P + S) [5]: 571 ± 32 ng/mL
Stimulated GH release (P + S) [6]: 399 ± 24 ng/mL
Unstimulated GH release [7]: 388 ± 41 ng/mL
Unstimulated GH release [8]: 273 ± 39 ng/mL
Compound: Ser(Bzl)Lys(Ac)DTrp-p-phenylpiperidinamide

Unstimulated Basal GH release (peptide 3 μg/ml): 1124 ± 37 ng/mL
Unstimulated Basal GH release (peptide 10 μg/ml): 749 ± 10 ng/mL
Unstimulated Basal GH release (peptide 30 μg/ml): 615 ± 41 ng/mL
Compound: H[dW][dW]K-NH2 [1-His-DTrp-DTrp-Lys-NH2]

Unstimulated Basal GH release (peptide 1 μg/ml): 1086 ± 52 ng/mL
Unstimulated Basal GH release (peptide 3 μg/ml): 1103 ± 18 ng/mL
Unstimulated Basal GH release (peptide 10 μg/ml): 994 ± 22 ng/mL
Unstimulated Basal GH release (peptide 30 μg/ml): 704 ± 115 ng/mL
Compound: αAib-DTrp-DAla-cyclohexylAla-NH2 [4-αAib-DTrp-DAla-cyclohexylAla-NH2]

Unstimulated Basal GH release (peptide 1 μg/ml): 980 ± 44 ng/mL
Unstimulated Basal GH release (peptide 3 μg/ml): 826 ± 32 ng/mL
Unstimulated Basal GH release (peptide 10 μg/ml): 602 ± 53 ng/mL
Unstimulated Basal GH release (peptide 30 μg/ml): 492 ± 11 ng/mL
Compound: αAib-DTrp-DcyclohexylAla-NH2 [3-αAib-DTrp-DcyclohexylAla-NH2]

Stimulated GH release (P + S) [10]: 432 ± 25 ng/mL
Stimulated GH release (P + S) [5]: 353 ± 10 ng/mL
Unstimulated GH release [12]: 393 ± 54 ng/mL
Unstimulated GH release [7]: 369 ± 30 ng/mL
Compound: Benzamide-DSerDLysTrp-p-phenylpiperidinamide

Unstimulated Basal GH release (peptide 10 μg/ml): 267 ± 27 ng/mL
Unstimulated Basal GH release (peptide 30 μg/ml): 276 ± 65 ng/mL
Unstimulated Basal GH release (peptide 100 μg/ml): 360 ± 84 ng/mL
Compound: [dF]AF[dF]K-NH2 [7-DPhe-Ala-Phe-DPhe-Lys-NH2]

Stimulated GH release (P + S) [1]: 1149 ± 33 ng/mL
Stimulated GH release (P + S) [2]: 886 ± 29 ng/mL
Unstimulated GH release [3]: 754 ± 32 ng/mL
Unstimulated GH release [4]: 498 ± 26 ng/mL
Compound: COC(=O)c1cc2ccccc2cc1C(=O)Nc1ccc(C)cc1 [2-[methylester]-3-[p-methylphenylamidenaphthalenecarboxylamide]

Unstimulated Basal GH release (peptide 3 μg/ml): 1264 ± 2 ng/mL
Unstimulated Basal GH release (peptide 10 μg/ml): 980 ± 72 ng/mL
Unstimulated Basal GH release (peptide 30 μg/ml): 699 ± 7 ng/mL
Compound: Ac-DβNal-DTrp-NH2 [2-Ac-DβNal-DTrp-NH2]

Stimulated GH release (P + S) [9]: 1085 ± 1 ng/mL
Stimulated GH release (P + S) [10]: 917 ± 4 ng/mL
Stimulated GH release (P + S) [5]: 344 ± 6 ng/mL
Stimulated GH release (P + S) [6]: 486 ± 29 ng/mL
Unstimulated GH release [11]: 815 ± 26 ng/mL
Unstimulated GH release [12]: 390 ± 35 ng/mL
Unstimulated GH release [7]: 520 ± 61 ng/mL
Unstimulated GH release [8]: 577 ± 24 ng/mL
Compound: N[C@H](Cc1c[nH]c2ccccc12)C(=O)N1CCC(c2ccccc2)CC1 [1-DTrp-4-phenylpiperdinamide, DTrp-4-phenylpiperdinamide]

Unstimulated Basal GH release (peptide 1 μg/ml): 1451 ± 19 ng/mL
Unstimulated Basal GH release (peptide 3 μg/ml): 1175 ± 77 ng/mL
Unstimulated Basal GH release (peptide 10 μg/ml): 1129 ± 6 ng/mL
Unstimulated Basal GH release (peptide 30 μg/ml): 744 ± 44 ng/mL
Compound: [dK]Y[dW][dW]F-NH2 [8-DLys-Tyr-DTrp-DTrp-Phe-NH2]

Stimulated GH release (P + S) [5]: 1281 ± 58 ng/mL
Stimulated GH release (P + S) [6]: 699 ± 53 ng/mL
Unstimulated GH release [7]: 929 ± 28 ng/mL
Unstimulated GH release [8]: 616 ± 23 ng/mL
Compound: C=C(C)CON=C(c1ccccc1)c1ccccc1 [5-O-(2-methylallyl) benzophonone oxime, O-(2-methylallyl) benzophonone oxime]

Reference: patent US9315546B2, “Growth hormone secretatogue receptor antagonists and uses thereof” (The Administrators of the Tulane Educational Fund, priority 2010, dated 2016)
